Reference: patent US4659710A, “1,7-Naphthyridine derivatives and pharmaceutical compositions” (SS Pharmaceutical Co., Ltd., priority 1985, dated 1987)

How the values were obtained:
[1] = system: spontaneously-beating atrial muscle; test: Cardiotonic effects: contractile force and heart rate of isolated spontaneously beating atria; set-up: species or system Hartley male guinea pig; settings: cumulative
Experimental: The heart of a Hartley male guinea pig having a body weight of 500-800 g was removed. Its atrial muscles were isolated in Krebs-Henseleit's solution. A spontaneously-beating atrial muscle was suspended, in a bath containing 20 ml of Krebs-Henseleit's solution gassed with 95% O2 +5% CO2 at 32° C. Thereafter, the contractile force and its heart rate were measured. After stabilization, test compounds which were dissolved in a small amount of 1N hydrochloric acid or 0.1N hydrochloric acid and then diluted with a physiological saline, were administered cumulatively ([…]) to evaluate effects on the contractile force. The maximum percent change in increase of the contractile force induced by test compounds was determined and regarded as an index for cardiotonic (positive inotropic) effects. Heart rate increasing or decreasing effects (positive or negative chronotropism) were also observed.

[2] = system: carrageenan-induced swelling of the right hind paw; test: Anti-inflammatory effects: inhibition of carrageenan-induced hind paw swelling; type: in vivo, Wistar rats; settings: oral, 60 min before carrageenan, foot volume 3 hours later
Experimental: After fasting a group of five Wistar rats of 6 weeks old for 18 hours, each test compound dissolved or suspended in a 0.5% solution of sodium carboxymethylcellulose (CMC-Na) was administered orally. Sixty minutes after the administration of the test compound, 0.1 ml of a 1% carrageenan solution was injected into subplanter surface of the right hind paw of each rat. The foot volume (A) was measured 3 hours later. From the foot volume (B) before the administration of carrageenan, the percent swelling ((A-B)/B×100) was calculated and compared with those of control rats.
Inhibition (%)= [formula]

[3] = system: ouabain-induced arrhythmia; test: Antiarrhythmic effects: amount of ouabain required to induce arrhythmia; type: in vivo, Hartley male guinea pigs; settings: 10 mg/kg i.v., ouabain infused at 4 μg/kg/min; for amount of ouabain required to induce unequal intervals of R-R wave: control 59.2; for amount of ouabain required to induce ventricular extrasystole or A-V block: control 80.5; for amount of ouabain required to induce ventricular extrasystole or A-V block / amount of ouabain required to induce ventricular fibrillation / amount of ouabain required to induce cardiac arrest: in µg/kg (unit assumed); for amount of ouabain required to induce ventricular fibrillation: control 170.0; for amount of ouabain required to induce cardiac arrest: control 246.6
Experimental: Using a group of five Hartley male guinea pigs (body weights: 530-990 g), their electrocardiograms were recorded from a limbic lead II under anesthesia with urethane 1.2 g/kg i.p. to investigate the antiarrhythmic effects. Namely, each test compound dissolved in 0.1N hydrochloric acid and diluted with a physiological saline was intravenously administered at a dose of 10 mg/kg. Immediately after the administration of the test compound, ouabain was continuously infused at a rate of 4 μg/kg/min through a polyethylene cannula inserted in the jugular vein of the guinea pigs so as to induce arrhythmia. The antiarrhythmic effects were judged from the amount of ouabain required to induce unequal intervals of R-R wave, ventricular extrasystole or A-V block, ventricular fibrillation and cardiac arrest.

[4] = Acute toxicity, rat; settings: in vivo, po
[5] = Acute toxicity, mouse; settings: in vivo, po

| SMILES | Chronotropy, % of Control (in parentheses) ([1]; 3 × 10^-5 g/ml) | Inotropy, % of Control ([1]; 3 × 10^-5 g/ml) | Chronotropy, % of Control (in parentheses) ([1]; 3 × 10^-6 g/ml) | Inotropy, % of Control ([1]; 3 × 10^-6 g/ml) | Chronotropy, % of Control (in parentheses) ([1]; 10^-4 g/ml) | Inotropy, % of Control ([1]; 10^-4 g/ml) | Chronotropy, % of Control (in parentheses) ([1]; 10^-5 g/ml) | Inotropy, % of Control ([1]; 10^-5 g/ml) | Chronotropy, % of Control (in parentheses) ([1]; 10^-6 g/ml) | Inotropy, % of Control ([1]; 10^-6 g/ml) | LD50 [5] | also measured |
| --- | --- | --- | --- | --- | --- | --- | --- | --- | --- | --- | --- | --- |
| CCOc1nc(NC(C)=O)cc2cccnc12 [compound 34] | 25.7% | 38.7% | 10.3% | 13.3% | 46.0% | 89.2% | 18.5% | 24.9% | 5.3% | 6.3% |  |  |
| CC(=O)Nc1cc2cccnc2c(N2CCN(CCO)CC2)n1 [Compound No. 22, 6-acetamido-8-[4-(2-hydroxyethyl)-1-piperazinyl]-1,7-naphthyridine] |  |  |  |  |  |  |  |  |  |  | 1600 mg/kg | Inhibition (%) ([2]; 10 mg/kg): 42.4%; amount of ouabain required to induce unequal intervals of R-R wave [3]: 69.6 µg/kg; amount of ouabain required to induce ventricular extrasystole or A-V block [3]: 109.6; amount of ouabain required to induce ventricular fibrillation [3]: 285.4; amount of ouabain required to induce cardiac arrest [3]: 399.3; LD50 [4]: > 3000 mg/kg |
| CC(=O)Nc1cc2cccnc2c(N(C)C)n1 [Compound No. 16] | 7.0% | 36.8% | 1.6% | 4.5% | 19.0% | 103.2% | 3.3% | 12.5% |  |  | > 500 mg/kg |  |
| Nc1cc2cccnc2c(N2CCN(CCO)CC2)n1 [Compound No. 4] |  |  |  |  |  |  |  |  |  |  | > 1000 mg/kg | Inhibition (%) ([2]; 30 mg/kg): 54.0%; amount of ouabain required to induce unequal intervals of R-R wave [3]: 59.1 µg/kg; amount of ouabain required to induce ventricular extrasystole or A-V block [3]: 78.9; amount of ouabain required to induce ventricular fibrillation [3]: 216.5; amount of ouabain required to induce cardiac arrest [3]: 277.5 |
| Nc1cc2cccnc2c(N2CCOCC2)n1 [Compound No. 3, 6-amino-8-morpholino-1,7-naphthyridine] |  |  |  |  |  |  |  |  |  |  |  | Inhibition (%) ([2]; 100 mg/kg): 55.0% |
| CC(=O)Nc1cc2cccnc2c(NCCCO)n1 [Compound No. 8] | 6.8% | 33.4% | 2.7% | 9.6% | 12.9% | 64.1% | 4.0% | 16.4% | 1.1% | 4.1% |  |  |
| CCCCCCCC(=O)Nc1cc2cccnc2c(N2CCN(CCO)CC2)n1 [compound 25] |  |  |  |  |  |  |  |  |  |  |  | Inhibition (%) ([2]; 10 mg/kg): 44.6% |
| CNc1nc(NC(C)=O)cc2cccnc12 [compound 5] | 8.6% | 29.0% | 3.6% | 8.6% | 13.0% | 59.1% | 5.9% | 12.9% | 1.7% | 4.7% |  |  |
| CC(=O)Nc1cc2cccnc2c(NCc2cccnc2)n1 [Compound No. 13] | 1.9% | 52.3% | 1.6% | 8.7% | -11.8% | 92.9% | 3.1% | 24.6% | 0.2% | 2.6% | > 500 mg/kg |  |
| CC(=O)Nc1cc2cccnc2c(N2CCN(C)CC2)n1 [compound 19] |  |  |  |  |  |  |  |  |  |  |  | amount of ouabain required to induce unequal intervals of R-R wave [3]: 68.9 µg/kg; amount of ouabain required to induce ventricular extrasystole or A-V block [3]: 146.0; amount of ouabain required to induce cardiac arrest [3]: 392.1 |
| CC(=O)Nc1cc2cccnc2c(NCC(O)CO)n1 (stereo not drawn) [compound 9] |  |  |  |  |  |  |  |  |  |  |  | Inhibition (%) ([2]; 30 mg/kg): 27.1% |
